Reference: the supplement of paper PMC10307832

Legend:
Test in all cases: relative viability (nuclei count vs DMSO), 5 days (fraction); higher = more cells survive
BI-D1870 + Bortezomib = compound: CC(C)CCN1c2nc(Nc3cc(F)c(O)c(F)c3)ncc2N(C)C(=O)C1C [BI-D1870] + CC(C)C[C@H](NC(=O)[C@H](Cc1ccccc1)NC(=O)c1cnccn1)B(O)O [Bortezomib] (partner 0.002 µM)
How it was run: (§1)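 Nuclei were stained with Hoechst during a one-step fixation (final 0.05% Triton X-100, 1% formaldehyde, 1 ug/ml Hoechst) carried out 5 days after dosing, then counted on 4× images. The cells, lung cancer lines in 1536-well plates, had been dosed by pin tool the day after seeding with one drug alone or a fixed anchor-drug dose plus five library-drug doses (not always all listed) in √10 steps. Relative viability is the nuclei count in treated wells divided by that in vehicle wells, and each value is the median of duplicate plates.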

BI-D1870 + Dasatinib = compound: CC(C)CCN1c2nc(Nc3cc(F)c(O)c(F)c3)ncc2N(C)C(=O)C1C [BI-D1870] + Cc1nc(Nc2ncc(C(=O)Nc3c(C)cccc3Cl)s2)cc(N2CCN(CCO)CC2)n1 [Dasatinib] (partner 0.075 µM)
How it was run: as §1

Zebularine + Trametinib = compound: O=c1ncccn1[C@@H]1O[C@H](CO)[C@@H](O)[C@H]1O [Zebularine] + CC(=O)Nc1cccc(-n2c(=O)n(C3CC3)c(=O)c3c(Nc4ccc(I)cc4F)n(C)c(=O)c(C)c32)c1 [Trametinib] (partner 0.02 µM)
How it was run: as §1

Zebularine + Foretinib = compound: O=c1ncccn1[C@@H]1O[C@H](CO)[C@@H](O)[C@H]1O [Zebularine] + COc1cc2c(Oc3ccc(NC(=O)C4(C(=O)Nc5ccc(F)cc5)CC4)cc3F)ccnc2cc1OCCCN1CCOCC1 [Foretinib] (partner 0.25 µM)
How it was run: as §1

Cell Line | relative viability (BI-D1870 + Bortezomib; first compound 0.04 µM) | relative viability (BI-D1870 + Bortezomib; first compound 0.1265 µM) | relative viability (BI-D1870 + Bortezomib; first compound 0.4 µM) | relative viability (BI-D1870 + Bortezomib; first compound 1.265 µM) | relative viability (BI-D1870 + Bortezomib; first compound 4 µM) | relative viability (BI-D1870 + Dasatinib; first compound 0.04 µM) | relative viability (BI-D1870 + Dasatinib; first compound 0.1265 µM) | relative viability (BI-D1870 + Dasatinib; first compound 0.4 µM) | relative viability (BI-D1870 + Dasatinib; first compound 1.265 µM) | relative viability (BI-D1870 + Dasatinib; first compound 4 µM) | relative viability (Zebularine + Trametinib; first compound 1 µM) | relative viability (Zebularine + Trametinib; first compound 3.162 µM) | relative viability (Zebularine + Trametinib; first compound 31.62 µM) | relative viability (Zebularine + Trametinib; first compound 100 µM) | relative viability (Zebularine + Foretinib; first compound 1 µM) | relative viability (Zebularine + Foretinib; first compound 3.162 µM) | relative viability (Zebularine + Foretinib; first compound 10 µM) | relative viability (Zebularine + Foretinib; first compound 31.62 µM) | relative viability (Zebularine + Foretinib; first compound 100 µM) | relative viability (Zebularine + Trametinib; first compound 10 µM)
NCI-H23 | 1.44 | 0.85 | 1.16 | 1.03 | 0.529 | 0.923 | 0.741 | 0.692 | 0.588 | 0.579 | 0.486 | 0.443 | 0.405 | 0.412 | 1.09 | 1.1 | 0.658 | 0.893 | 0.854 | –
201T | 1.14 | 1.06 | 1.07 | 1.1 | 1.06 | 0.59 | 0.569 | 0.571 | 0.548 | 0.544 | 0.793 | 0.767 | 0.741 | 0.719 | 1.16 | 1.14 | – | 0.973 | 0.32 | 0.647
NCI-H460 | 1.45 | 1.01 | 1.06 | 0.686 | 0.51 | 0.594 | 0.377 | 0.528 | 0.507 | 0.242 | 0.24 | 0.182 | 0.196 | 0.0781 | 1.08 | 0.948 | 0.689 | 0.463 | 0.0513 | 0.0901
NCI-H661 | 0.801 | 0.67 | 0.695 | 1.01 | 0.808 | 1.04 | 0.867 | 0.874 | 0.898 | 0.708 | 0.601 | 0.596 | 0.651 | 0.639 | 0.989 | 1.04 | 0.991 | 1.18 | 1.02 | 0.457
HCC-15 | 1.03 | 1.01 | 0.922 | 1.04 | 0.863 | 0.656 | 0.533 | 0.582 | 0.517 | 0.287 | 0.375 | 0.377 | 0.392 | 0.298 | 1.21 | 1.08 | 0.833 | 0.861 | 0.434 | 0.395
LCLC-103H | 1.28 | 1.09 | 1.06 | 1.17 | 1.06 | 0.537 | 0.38 | 0.454 | 0.469 | 0.469 | 0.727 | 0.672 | 0.675 | 0.612 | 0.785 | 0.861 | 0.456 | 0.78 | 0.469 | 0.604
NCI-H441 | 0.749 | 0.535 | 0.796 | 0.777 | 0.71 | 0.763 | 0.544 | 0.575 | 0.651 | 0.671 | 0.485 | 0.416 | 0.315 | 0.213 | 1.72 | 1.03 | 0.684 | 0.361 | 0.258 | 0.316
EPLC-272H | 0.887 | 0.99 | 1.01 | 1.1 | 0.772 | 0.414 | 0.38 | 0.338 | 0.364 | 0.32 | 0.348 | – | 0.223 | 0.352 | 0.958 | 0.591 | 0.6 | 0.631 | 0.468 | 0.258
